Results taken from ChEMBL document CHEMBL4000191, “Antileishmanial evaluation of clubbed bis(indolyl)-pyridine derivatives: One-pot synthesis, in vitro biological evaluations and in silico ADME prediction” (Bioorg Med Chem Lett, 2017).
Values after ≈ are worked out from the molar mass of the structure shown.

Tests used:
[1] = tested on: Staphylococcus aureus; assay: Antibacterial activity against Staphylococcus aureus NCIM 2901 by standard agar method; assay type: functional
[2] = tested on: Pseudomonas aeruginosa; assay: Antibacterial activity against Pseudomonas aeruginosa NCIM 2036 by standard agar method; assay type: functional
[3] = tested on: Escherichia coli; assay: Antibacterial activity against Escherichia coli NCIM 2256 by standard agar method; assay type: functional
[4] = tested on: Leishmania donovani; assay: Antileishmanial activity against Leishmania donovani NHOM/IN/80/DD8 promastigotes after 72 hrs by MTT assay; assay type: functional; details: NHOM/IN/80/DD8, 72 h
[5] = tested on: Bacillus subtilis; assay: Antibacterial activity against Bacillus subtilis NCIM 2063 by standard agar method; assay type: functional
[6] = tested on: Leishmania donovani; assay: Antileishmanial activity against Leishmania donovani; assay type: functional
[7] = tested on: Leishmania chagasi; assay: Antileishmanial activity against Leishmania donovani chagasi MHOM/BR/74/PP75 promastigotes after 72 hrs by phase contrast microscopic method; assay type: functional; details: MHOM/BR/74/PP75, 72 h
[8] = tested on: HeLa; assay: Cytotoxic activity against human HeLa cells up to 300 ug/mL after 72 hrs by MTT assay; assay type: cell-based

| SMILES | MIC [1] [µg/mL] | MIC [2] [µg/mL] | MIC [3] [µg/mL] | MIC [5] [µg/mL] | IC50 [6] [µM] | IC50 [7] [µM] | IC50 [4] [µM] | Activity [8] |
| --- | --- | --- | --- | --- | --- | --- | --- | --- |
| C[n+]1c2ccccc2cc2[n-]c3ccccc3c21 [CRYPTOLEPINE] |  |  |  |  | 1.6 |  |  |  |
| COC(=O)[C@@H]1C[C@@]23CCCN4CC[C@@]5(c6ccccc6N(C(=O)OC)[C@]15CC2)[C@H]43 |  |  |  |  |  | 60.9 |  |  |
| CN(C)c1ccc(-c2cc(-c3c[nH]c4ccccc34)nc(-c3c[nH]c4ccccc34)c2)cc1 | 229 (≈ 534 µM) | 149 (≈ 349 µM) | 95.9 (≈ 224 µM) | 103 (≈ 240 µM) |  |  | 112 |  |
| Oc1ccc(-c2cc(-c3c[nH]c4ccccc34)nc(-c3c[nH]c4ccccc34)c2)cc1O | 191 (≈ 458 µM) | 224 (≈ 535 µM) | 158 (≈ 379 µM) | 121 (≈ 291 µM) |  |  | 287 |  |
| COc1cc(-c2cc(-c3c[nH]c4ccccc34)nc(-c3c[nH]c4ccccc34)c2)cc(OC)c1OC | 179 (≈ 377 µM) | 197 (≈ 414 µM) | 192 (≈ 403 µM) | 79.9 (≈ 168 µM) |  |  | 136 |  |
| Clc1ccc(-c2cc(-c3c[nH]c4ccccc34)nc(-c3c[nH]c4ccccc34)c2)cc1 | 183 (≈ 435 µM) | 115 (≈ 275 µM) | 90.5 (≈ 216 µM) | 77.2 (≈ 184 µM) |  |  | 166 |  |
| O=C(O)c1cn(C2CC2)c2cc(N3CCNCC3)c(F)cc2c1=O [CIPROFLOXACIN] |  | 50 (≈ 151 µM) | 25 (≈ 75.4 µM) |  |  |  |  |  |
| O=C(O)c1ccccc1-c1cc(-c2c[nH]c3ccccc23)nc(-c2c[nH]c3ccccc23)c1 | 129 (≈ 300 µM) | 122 (≈ 284 µM) | 71.5 (≈ 166 µM) | 70.4 (≈ 164 µM) |  |  | 118 |  |
| CC1(C)S[C@@H]2[C@H](NC(=O)[C@H](N)c3ccccc3)C(=O)N2[C@H]1C(=O)O [AMPICILLIN] | 250 (≈ 715 µM) | 100 (≈ 286 µM) | 100 (≈ 286 µM) | 250 (≈ 715 µM) |  |  |  |  |
| COc1ccc(-c2cc(-c3c[nH]c4ccccc34)nc(-c3c[nH]c4ccccc34)c2)c(OC)c1 | 123 (≈ 276 µM) | 188 (≈ 423 µM) | 52.2 (≈ 117 µM) | 88.7 (≈ 199 µM) |  |  | 600 |  |

The remaining compounds from weak to strong by MIC [1], led by results:

| MIC [1] [µg/mL] | MIC [2] [µg/mL] | MIC [3] [µg/mL] | MIC [5] [µg/mL] | IC50 [6] [µM] | IC50 [7] [µM] | SMILES | IC50 [4] [µM] | Activity [8] |
| --- | --- | --- | --- | --- | --- | --- | --- | --- |
| 221 (≈ 511 µM) | 165 (≈ 383 µM) | 129 (≈ 300 µM) | 95.7 (≈ 222 µM) |  |  | COc1cc(-c2cc(-c3c[nH]c4ccccc34)nc(-c3c[nH]c4ccccc34)c2)ccc1O | 169 |  |
| 194 (≈ 436 µM) | 180 (≈ 404 µM) | 191 (≈ 428 µM) | 55.4 (≈ 124 µM) |  |  | COc1ccc(-c2cc(-c3c[nH]c4ccccc34)nc(-c3c[nH]c4ccccc34)c2)cc1OC | 192 |  |
| 178 (≈ 391 µM) | 175 (≈ 386 µM) | 87.5 (≈ 193 µM) | 96.5 (≈ 212 µM) |  |  | Clc1cccc(Cl)c1-c1cc(-c2c[nH]c3ccccc23)nc(-c2c[nH]c3ccccc23)c1 | 102 |  |
| 166 (≈ 394 µM) | 150 (≈ 358 µM) | 41.4 (≈ 98.5 µM) | 64.8 (≈ 154 µM) |  |  | Clc1ccccc1-c1cc(-c2c[nH]c3ccccc23)nc(-c2c[nH]c3ccccc23)c1 | 123 | Non-Toxic |
| 165 (≈ 398 µM) | 120 (≈ 288 µM) | 46.6 (≈ 112 µM) | 81.5 (≈ 196 µM) |  |  | COc1ccc(-c2cc(-c3c[nH]c4ccccc34)nc(-c3c[nH]c4ccccc34)c2)cc1 | 99.5 | Non-Toxic |
| 158 (≈ 356 µM) | 182 (≈ 408 µM) | 133 (≈ 299 µM) | 79.5 (≈ 178 µM) |  |  | COc1ccc(OC)c(-c2cc(-c3c[nH]c4ccccc34)nc(-c3c[nH]c4ccccc34)c2)c1 | 260 |  |
| 158 (≈ 410 µM) | 149 (≈ 387 µM) | 55.4 (≈ 144 µM) | 89.6 (≈ 232 µM) |  |  | c1ccc(-c2cc(-c3c[nH]c4ccccc34)nc(-c3c[nH]c4ccccc34)c2)cc1 | 142 |  |
